What was measured:
[1] = system: p53; experiment: Western blot of total p53 protein levels in SK-N-SH cells; format: cell-based, human
Method: Because p53 is a key regulator and mediator of apoptosis, the total protein levels of p53 in the p53-wild type cell line SK-N-SH were measured after treatment of cells with syringolin A. As a control, the p53-deficient cell line SKOV3 was tested in parallel. Cells at a concentration of 1.0×10^5 cells per ml were first seeded in six-well plates containing 2 ml of culture medium per well. […] Cells were incubated for 0, 24, and 48 hours, harvested, and lysed in radioimmuno-precipitation assay (RIPA) buffer (20 mM Tris-HCl, pH 7.5, 0.1% sodium lauryl sulphate, 0.5% sodium deoxycholate, 135 mM NaCl, 1% Triton X-100, 10% glycerol, 2 mM EDTA), supplemented with a protease inhibitor cocktail (Roche Molecular Biochemicals, Indianapolis, Ind.) and phosphatase inhibitors sodium fluoride (NaF; 20 mM) and sodium vanadate (Na3VO4; 0.27 mM). The total protein concentration was determined using the protein assay dye reagent from Bio-Rad Laboratories (Hercules, Calif.) and bovine serum albumin (BSA) as a standard. Cell lysates in Laemmli sample buffer (Bio-Rad Laboratories, Hercules, Calif.) containing 5% (v/v) β-mercaptoethanol were boiled for 5 minutes, and equal amounts of total protein were analyzed by 10% sodium dodecyl sulphate-polyacrylamide gel electrophoresis (SDS-PAGE) and Western blotting using PVDF membranes. p53 was detected in Western blotting with mouse monoclonal anti-p53 (sc-126) (diluted 1:250) from Santa Cruz Biotechnology (Santa Cruz, Calif.). Actin was also detected as a loading control using mouse monoclonal anti-β-actin (A5316) (diluted 1:1000) from Sigma Chemical Co. (St. Louis, Mo.). Alternatively, lysates were blotted with rabbit monoclonal anti-caspase-3 (#9665) (diluted 1:1000) or rabbit polyclonal anti-Akt (#9272) (diluted 1:1000), both from Cell Signalling Technology, Inc. (Beverly, Mass.) to test for levels of procaspase-3 and Akt/PKB. Secondary anti-mouse (diluted 1:5000) and anti-rabbit (diluted 1:5000) antibodies coupled to horseradish peroxidase (HRP) were from Amersham Biosciences (Piscataway, N.J.). Proteins were detected using the ECL Plus reagents (Amersham Biosciences, Piscataway, N.J.) and Kodak BioMax XAR film (Fisher Scientific, Pittsburgh, Pa.). The results are representative of three (p53, procaspase-3) or four (Akt/PKB) independent experiments.
As inhibition of the proteasome is expected to result in increased levels of ubiquitinated proteins (Meng, et al. 1999. Proc. Natl. Acad. Sci. U.S.A. 96:10403-10408, which is incorporated herein by reference in its entirety), the effect of syringolin A on total ubiquitinated protein accumulation was analyzed by immunoblot analysis. To do so, SK-N-SH cells were seeded in 6-well cell culture plates at a concentration of 3.8×10^5 cells per ml (1.98 ml per well). […]

[2] = molecular target: T1, human erythrocyte 20S proteasomes, trypsin-like activity (Homo sapiens, UniProt Q99436); experiment: 20S Proteasome Assay Kit, Boc-LRR-AMC substrate; format: biochemical; conditions: 37° C., 100 μM Boc-LRR-AMC
T1 construct: which contains human erythrocyte 20S proteasomes; purchased BIOMOL International AK-740; host or cells: human erythrocytes
Method: The eukaryotic 20S proteasome contains three catalytic subunits (β1, β2, and (β5) conferring caspase-like, trypsin-like and chymotrypsin-like proteolytic activities, respectively (Borissenko and Groll. 2007. Chem. Rev. 107:687-717, which is incorporated herein by reference in its entirety). Syringolin A was tested as a proteasome inhibitor using the 20S Proteasome Assay Kit for Drug Discovery AK-740 (BIOMOL® International, Plymouth Meeting, PA, USA), which contains human erythrocyte 20S proteasomes, in a 96-well microtiter plate. The fluorogenic substrates Suc-LLVY-AMC, Boc-LRR-AMC, and Z-LLE-AMC (BIOMOL® International) were used to monitor chymotrypsin-like, trypsin-like, and caspase-like activities, respectively. […] The release of free AMC (7-amino-4-methylcoumarin) at 37° C. was monitored with an MWGt Sirius HT fluorescence microplate reader (BIO-TEK® Instruments) equipped with a 360 nm excitation and a 460 nm emission filter. Proteolytic activities were measured as the increase in relative fluorescence units (RFU) over time (FIG. 7A-C). […] The initial velocities (vi) were determined from the time derivative of these curves and plotted versus the corresponding inhibitor concentration ([I]). […] The rate of covalent inhibition (kassociation), which equals kobs/[I] was calculated over the range of inhibitor concentrations given in parentheses in FIG. 7D. […]

| Structure (SMILES) | p53 levels ([1]; 20 μM, 24 hours after treatment) | protein levels of tumor suppressor protein p53 ([1]; 25 μM, time-course up to 24 hours) | inhibition of trypsin-like activity [2] | total protein levels of p53 ([1]; GlbA treatment) | GlbA-induced p53 levels in presence of 3-MA ([1]; GlbA with 3-MA) |
| --- | --- | --- | --- | --- | --- |
| CC(C)[C@H](NC(=O)N[C@H](C(=O)N[C@H]1/C=C/CCNC(=O)/C=C/[C@H](C(C)C)NC1=O)C(C)C)C(=O)O [syringolin A] | rapidly increased | time-dependent increase | inhibited | – | – |
| CCCCCCC/C=C/C=C/C(=O)N[C@H](C(=O)N[C@H]1C[C@@H](O)CCNC(=O)/C=C/[C@H](C)NC1=O)[C@@H](C)O [glidobactin A] | – | – | less sensitive | strong accumulation of p53 | partially reduced |
